Experimental data: patent US9695155B2, “Herbicidal substituted pyrimidinyloxy benzene compounds” (E. I. DU PONT DE NEMOURS AND COMPANY, priority 2013, dated 2017)

Key:
[1] = test system: lambsquarters; assay: Test C preemergence; assay type: in vivo, Chenopodium album; conditions: Chenopodium album, pre-emergence
How it was run: (§1)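 Visual ratings on a 0–100 scale (100 = complete control) were made versus untreated controls after 13–15 greenhouse days. Chemicals in a surfactant-containing non-phytotoxic solvent were applied either preemergence to seeds in loam–sand soil or postemergence to 1- to 4-leaf plants 2–18 cm tall.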

[2] = test system: giant foxtail; assay: Test C postemergence; assay type: in vivo, Setaria faberii; conditions: Setaria faberi, post-emergence
How it was run: as §1

[3] = test system: large (Lg) crabgrass; assay: Test C preemergence; assay type: in vivo, Digitaria sanguinalis; conditions: Digitaria sanguinalis, pre-emergence
How it was run: as §1

[4] = test system: giant foxtail; assay: Test C preemergence; assay type: in vivo, Setaria faberii; conditions: Setaria faberi, pre-emergence
How it was run: as §1

[5] = test system: soybean; assay: Test C postemergence; assay type: in vivo, Glycine max; conditions: Glycine max, post-emergence
How it was run: as §1

[6] = test system: johnsongrass; assay: Test C postemergence; assay type: in vivo, Sorghum halepense; conditions: Sorghum halepense, post-emergence
How it was run: as §1

[7] = test system: yellow nutsedge; assay: Test C preemergence; assay type: in vivo, Cyperus esculentus; conditions: Cyperus, pre-emergence
How it was run: as §1

[8] = test system: giant foxtail; assay: Test A preemergence; assay type: in vivo, Setaria faberii; conditions: Setaria faberi, pre-emergence, 240 h, read-out: Foxtail, Giant plant response rating
How it was run: (§2)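 Pre- and postemergence greenhouse screen. Soil: loam + sand. Spray carrier: solvent mixture, non-phytotoxic, with surfactant. Post timing at 1–2 leaves, height 2–10 cm. Readout: visual injury on a 0–100 scale roughly 10 days after application, untreated plants as reference.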

[9] = test system: large (Lg) crabgrass; assay: Test A postemergence; assay type: in vivo, Digitaria sanguinalis; conditions: Digitaria sanguinalis, post-emergence, 240 h
How it was run: as §2

[10] = test system: chickweed; assay: Test C postemergence; assay type: in vivo, Stellaria media; conditions: Stellaria media, post-emergence
Text: (§3) Seeds of plant species selected from blackgrass (Alopecurus myosuroides), Italian ryegrass (Lolium multiflorum), wheat, winter (winter wheat, Triticum aestivum), galium (catchweed bedstraw, Galium aparine), corn (Zea mays), large (Lg) crabgrass (Digitaria sanguinalis), giant foxtail (Setaria faberii), johnsongrass (Sorghum halepense), lambsquarters (Chenopodium album), morningglory (Ipomoea coccinea), yellow nutsedge (Cyperus esculentus), pigweed (Amaranthus retroflexus), ragweed (common ragweed, Ambrosia elatior), soybean (Glycine max), barnyardgrass (Echinochloa crus-galli), oilseed rape (Brassica napus), waterhemp (common waterhemp, Amaranthus rudis), kochia (Kochia scoparia), wild oat (Avena fatua), surinam grass (Brachiaria decumbens), foxtail, green (green foxtail, Setaria viridis), goosegrass (Eleusine indica), bromegrass, downy (downy bromegrass, Bromus tectorum), nightshade (eastern black nightshade, Solanum ptycanthum), cocklebur (common cocklebur, Xanthium strumarium), cupgrass, woolly (woolly cupgrass, Eriochloa villosa), bermudagrass (Cynodon dactylon), sunflower, (common oilseed sunflower, Helianthus annuus), Russian thistle (Salsola kali), and velvetleaf (Abutilon theophrasti) were planted into a blend of loam soil and sand and treated preemergence with test chemicals formulated in a non-phytotoxic solvent mixture which included a surfactant.
(§4) At the same time, plants selected from these crop and weed species and also barley, winter (winter barley, Hordeum vulgare), windgrass (Apera spica-venti), chickweed (common chickweed, Stellaria media), deadnettle (henbit deadnettle, Lamium amplexicaule), and canarygrass (littleseed canarygrass, Phalaris minor) were planted in pots containing Redi-Earth® planting medium (Scotts Company, 14111 Scottslawn Road, Marysville, Ohio 43041) comprising spaghnum peat moss, vermiculite, wetting agent and starter nutrients and treated with postemergence applications of test chemicals formulated in the same manner. Plants ranged in height from 2 to 18 cm (1- to 4-leaf stage) for postemergence treatments. Treated plants and controls were maintained in a greenhouse for 13 to 15 days, after which time all species were compared to controls and visually evaluated. Plant response ratings, summarized in Table C, are based on a scale of 0 to 100 where 0 is no effect and 100 is complete control. A dash (-) response means no test result.

[11] = test system: galium; assay: Test C preemergence; assay type: in vivo, Galium aparine; conditions: Galium, pre-emergence
How it was run: as §1

[12] = test system: yellow nutsedge; assay: Test C postemergence; assay type: in vivo, Cyperus esculentus; conditions: Cyperus, post-emergence
Text: as §3, §4

[13] = test system: johnsongrass; assay: Test C preemergence; assay type: in vivo, Sorghum halepense; conditions: Sorghum halepense, pre-emergence
How it was run: as §1

For `Clc1cnc(Oc2ccccc2-n2cc(Br)cn2)nc1` [Compound 7, 2-[2-(4-bromo-1H-pyrazol-1-yl)phenoxy]-5-chloropyrimidine], the pest or weed control at 62 g/ha ([1]; 62 g ai/ha, preemergence, scale 0 (no effect) to 100 (complete control), read-out: Lambsquarters plant response rating) was 80%, the pest or weed control at 125 g/ha ([1]; 125 g ai/ha, preemergence, scale 0 (no effect) to 100 (complete control), read-out: Lambsquarters plant response rating) was 85% and the pest or weed control at 250 g/ha ([1]; 250 g ai/ha, preemergence, scale 0 (no effect) to 100 (complete control), read-out: Lambsquarters plant response rating) was 95%. The pest or weed control at 31 g/ha ([1]; Preemergence, 31 g ai/ha, scale 0 to 100, 0 no effect, 100 complete control, read-out: Plant response rating, Lambsquarters) was 80%, the pest or weed control at 125 g/ha ([2]; 125 g ai/ha, postemergence, read-out: Plant response rating (0 to 100), Foxtail, Giant) was 10% and the pest or weed control at 250 g/ha ([2]; 250 g ai/ha, postemergence, read-out: Plant response rating (0 to 100), Foxtail, Giant) was 10%. The pest or weed control at 31 g/ha ([2]; Postemergence, 31 g ai/ha, scale 0 to 100 (0 no effect, 100 complete control), 13 to 15 days, read-out: Plant response rating, Foxtail, Giant) was 0%, the pest or weed control at 62 g/ha ([2]; Postemergence, 62 g ai/ha, scale 0 to 100 (0 no effect, 100 complete control), read-out: Plant response rating, Foxtail, Giant) was 5% and the pest or weed control at 62 g/ha ([3]; 62 g ai/ha, preemergence, scale 0 (no effect) to 100 (complete control), read-out: Crabgrass, Large plant response rating) was 98%. It also gave a pest or weed control at 125 g/ha ([3]; 125 g ai/ha, preemergence, scale 0 (no effect) to 100 (complete control), read-out: Crabgrass, Large plant response rating) of 100%, a pest or weed control at 250 g/ha ([3]; 250 g ai/ha, preemergence, scale 0 (no effect) to 100 (complete control), read-out: Crabgrass, Large plant response rating) of 100% and a pest or weed control at 31 g/ha ([3]; Preemergence, 31 g ai/ha, scale 0 to 100, 0 no effect, 100 complete control, read-out: Plant response rating, Crabgrass, Large) of 80%. The pest or weed control at 62 g/ha ([4]; 62 g ai/ha, preemergence, scale 0 (no effect) to 100 (complete control), read-out: Foxtail, Giant plant response rating) was 80%, the pest or weed control at 125 g/ha ([4]; 125 g ai/ha, preemergence, scale 0 (no effect) to 100 (complete control), read-out: Foxtail, Giant plant response rating) was 98% and the pest or weed control at 250 g/ha ([4]; 250 g ai/ha, preemergence, scale 0 (no effect) to 100 (complete control), read-out: Foxtail, Giant plant response rating) was 100%. It also gave a pest or weed control at 31 g/ha ([4]; Preemergence, 31 g ai/ha, scale 0 to 100, 0 no effect, 100 complete control, read-out: Plant response rating, Foxtail, Giant) of 40%, a Soybean plant response rating (crop injury, 0-100 scale) at 125 g/ha ([5]; 125 g ai/ha, postemergence, read-out: Plant response rating (0 to 100), Soybean) of 98% and a Soybean plant response rating (crop injury, 0-100 scale) at 250 g/ha ([5]; 250 g ai/ha, postemergence) of 98%. For the same compound, the Soybean plant response rating (crop injury, 0-100 scale) at 31 g/ha ([5]; Postemergence, 31 g ai/ha, scale 0 to 100 (0 no effect, 100 complete control), 13 to 15 days) was 85%, the Soybean plant response rating (crop injury, 0-100 scale) at 62 g/ha ([5]; Postemergence, 62 g ai/ha, scale 0 to 100 (0 no effect, 100 complete control)) was 98% and the pest or weed control at 125 g/ha ([6]; 125 g ai/ha, postemergence, read-out: Plant response rating (0 to 100), Johnsongrass) was 5%. It also gave a pest or weed control at 250 g/ha ([6]; 250 g ai/ha, postemergence, read-out: Plant response rating (0 to 100), Johnsongrass) of 10%, a pest or weed control at 31 g/ha ([6]; Postemergence, 31 g ai/ha, scale 0 to 100 (0 no effect, 100 complete control), 13 to 15 days, read-out: Plant response rating, Johnsongrass) of 0% and a pest or weed control at 62 g/ha ([6]; Postemergence, 62 g ai/ha, scale 0 to 100 (0 no effect, 100 complete control), read-out: Plant response rating, Johnsongrass) of 0%. For the same compound, the pest or weed control at 62 g/ha ([7]; 62 g ai/ha, preemergence, scale 0 (no effect) to 100 (complete control), read-out: Nutsedge, Yellow plant response rating) was 0%, the pest or weed control at 125 g/ha ([7]; 125 g ai/ha, preemergence, scale 0 (no effect) to 100 (complete control), read-out: Nutsedge, Yellow plant response rating) was 15% and the pest or weed control at 250 g/ha ([7]; 250 g ai/ha, preemergence, scale 0 (no effect) to 100 (complete control), read-out: Nutsedge, Yellow plant response rating) was 15%. The pest or weed control at 31 g/ha ([7]; Preemergence, 31 g ai/ha, scale 0 to 100, 0 no effect, 100 complete control, read-out: Plant response rating, Nutsedge, Yellow) was 0%, the pest or weed control at 125 g/ha ([8]; 125 g ai/ha, 0 to 100 scale where 0 is no effect and 100 is complete control) was 100% and the pest or weed control at 500 g/ha ([8]; 500 g ai/ha, 0 to 100 scale, 0 no effect, 100 complete control, approx. 10 days) was 100%. It also gave a pest or weed control at 125 g/ha ([9]; 125 g ai/ha, 0 to 100 scale where 0 is no effect and 100 is complete control, read-out: Plant response rating, Crabgrass, Large) of 80%, a pest or weed control at 500 g/ha ([9]; 500 g ai/ha, 0 to 100 scale, 0 no effect, 100 complete control, read-out: Plant response rating Crabgrass, Large) of 100% and a pest or weed control at 125 g/ha ([10]; 125 g ai/ha, postemergence, read-out: Plant response rating (0 to 100), Chickweed) of 90%. It also gave a pest or weed control at 250 g/ha ([10]; 250 g ai/ha, postemergence, read-out: Plant response rating (0 to 100), Chickweed) of 98%, a pest or weed control at 31 g/ha ([10]; Postemergence, 31 g ai/ha, scale 0 to 100 (0 no effect, 100 complete control), 13 to 15 days, read-out: Plant response rating, Chickweed) of 80% and a pest or weed control at 62 g/ha ([11]; 62 g ai/ha, preemergence, scale 0 (no effect) to 100 (complete control), read-out: Galium plant response rating) of 100%. For the same compound, the pest or weed control at 125 g/ha ([11]; 125 g ai/ha, preemergence, scale 0 (no effect) to 100 (complete control), read-out: Galium plant response rating) was 100%, the pest or weed control at 250 g/ha ([11]; 250 g ai/ha, preemergence, scale 0 (no effect) to 100 (complete control), read-out: Galium plant response rating) was 100% and the pest or weed control at 31 g/ha ([11]; Preemergence, 31 g ai/ha, scale 0 to 100, 0 no effect, 100 complete control, read-out: Plant response rating, Galium) was 85%. For the same compound, the pest or weed control at 125 g/ha ([12]; 125 g ai/ha, postemergence, read-out: Plant response rating (0 to 100), Nutsedge, Yellow) was 15%, the pest or weed control at 250 g/ha ([12]; 250 g ai/ha, postemergence, read-out: Plant response rating (0 to 100), Nutsedge, Yellow) was 20% and the pest or weed control at 31 g/ha ([12]; Postemergence, 31 g ai/ha, scale 0 to 100 (0 no effect, 100 complete control), 13 to 15 days, read-out: Plant response rating, Nutsedge, Yellow) was 10%. It also gave a pest or weed control at 62 g/ha ([12]; Postemergence, 62 g ai/ha, scale 0 to 100 (0 no effect, 100 complete control), read-out: Plant response rating, Nutsedge, Yellow) of 15%, a pest or weed control at 62 g/ha ([13]; 62 g ai/ha, preemergence, scale 0 (no effect) to 100 (complete control), read-out: Johnsongrass plant response rating) of 5% and a pest or weed control at 125 g/ha ([13]; 125 g ai/ha, preemergence, scale 0 (no effect) to 100 (complete control), read-out: Johnsongrass plant response rating) of 10%. For the same compound, the pest or weed control at 250 g/ha ([13]; 250 g ai/ha, preemergence, scale 0 (no effect) to 100 (complete control), read-out: Johnsongrass plant response rating) was 75% and the pest or weed control at 31 g/ha ([13]; Preemergence, 31 g ai/ha, scale 0 to 100, 0 no effect, 100 complete control, read-out: Plant response rating, Johnsongrass) was 0%.
